Test results: patent US12336981B2, “Compounds and compositions for the inhibition of NAMPT” (Valo Health, Inc., priority 2010, dated 2025)
Where two headings read alike, the source gives them in different places.

Assays:
A2780 cells = experiment: In-vitro cell proliferation assay (SRB), A2780 cells; assay type: cell-based; settings: A2780 cells, 72 hours, read-out: A2780 IC50
Procedure, shortened: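 Cells were plated overnight at 37° C., 5% CO2, then exposed to serially diluted compounds (0.1% DMSO final) for 72 hours. Viable cells were measured by sulforhodamine B staining after TCA fixation, read at 570 nm; media-only background was subtracted before % inhibition was calculated.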

NAMPT = target: T1, NAMPT (Homo sapiens, UniProt P43490); experiment: Biochemical inhibition assay: NAMPT enzymatic reaction, NMN quantified by mass spectrometry; settings: read-out: Biochem IC50
T1 construct: His tag; host or cells: E. coli
Procedure, shortened: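 Inhibition of E. coli-expressed His-tagged human NAMPT, measured as NMN formation by mass spectrometry after a 30 min room-temperature reaction containing 1 μM NAM, 100 μM PRPP and 2.5 mM ATP.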

[1] = Homo sapiens, A2780, 72 h, SRB assay

T1 sequence (P43490 whole entry): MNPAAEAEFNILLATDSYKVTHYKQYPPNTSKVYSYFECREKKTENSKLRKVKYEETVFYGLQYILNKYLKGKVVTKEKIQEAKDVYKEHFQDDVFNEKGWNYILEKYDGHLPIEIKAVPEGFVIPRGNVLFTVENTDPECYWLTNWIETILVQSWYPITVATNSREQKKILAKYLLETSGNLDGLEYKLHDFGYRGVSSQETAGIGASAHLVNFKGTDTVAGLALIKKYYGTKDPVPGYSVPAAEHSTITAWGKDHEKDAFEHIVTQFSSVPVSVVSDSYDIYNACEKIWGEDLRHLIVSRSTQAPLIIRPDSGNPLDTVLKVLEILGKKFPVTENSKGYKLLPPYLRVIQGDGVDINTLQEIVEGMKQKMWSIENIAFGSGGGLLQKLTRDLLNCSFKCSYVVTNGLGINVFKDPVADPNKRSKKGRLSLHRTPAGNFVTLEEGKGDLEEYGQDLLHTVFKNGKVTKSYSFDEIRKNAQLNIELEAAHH

SMILES | IC50 (NAMPT; NAMPT enzymatic reaction) [nM] | IC50 (A2780 cells; Homo sapiens, A2780, 72 h, SRB) [nM] | IC50 (NAMPT; NAMPT enzymatic assay) [nM] | also measured
CC(=O)c1ccccc1S(=O)(=O)c1ccc(CNC(=O)c2cc3cnccc3[nH]2)cc1 [N-({4-[(2-acetylbenzene)sulfonyl]phenyl}methyl)-1H-pyrrolo[3,2-c]pyridine-2-carboxamide] | 6 |  |  | IC50 (A2780 cells; [1]): 4 nM
COc1ccc(Cl)c(S(=O)(=O)c2ccc(CNC(=O)c3cc4ccncc4o3)cc2)c1 | 2.6 | 20.6 |  | 
COc1cc(F)ccc1S(=O)(=O)c1ccc(CNC(=O)c2cnc3[nH]ncc3c2)cc1 [N-({4-[(4-fluoro-2-methoxybenzene)sulfonyl]phenyl}methyl)-1H-pyrazolo[3,4-b]pyridine-5-carboxamide] | 159 | 74.2 |  | 
COc1ccc(S(=O)(=O)c2ccc(CNC(=O)c3ccc4nccn4c3)cc2)cc1 [N-({4-[(4-methoxybenzene)sulfonyl]phenyl}methyl)imidazo[1,2-a]pyridine-6-carboxamide] | 9.74 | 8.66 |  | 
Cc1c(Cl)cccc1S(=O)(=O)c1ccc(CNC(=O)c2cnc3nccn3c2)cc1 | 4.3 | 26.5 |  | 
CSc1ccc(S(=O)(=O)c2ccc(CNC(=O)c3cc4ccncc4s3)cc2)cc1F |  | 2 | 2.2 | 
CN1CCN(c2ccc(S(=O)(=O)c3ccc(CNC(=O)c4cc5ccncc5o4)cc3)cc2)CC1 |  | 0.5 | 1 | 
O=C(NCc1ccc(S(=O)(=O)c2ccc(F)c(OCC(F)(F)F)c2)cc1)c1cc2cnccc2[nH]1 |  | 6.5 | 10.3 | 
Cc1cccc(S(=O)(=O)c2ccc(CNC(=O)c3cc4ccncc4o3)cc2)n1 [N-{[4-(6-methylpyridine-2-sulfonyl)phenyl]methyl}furo[2,3-c]pyridine-2-carboxamide] |  | 12.5 | 12.8 | 
COc1cc(C(F)(F)F)ccc1S(=O)(=O)c1ccc(CNC(=O)c2ccc3nccn3c2)cc1 [N-[(4-{[2-methoxy-4-(trifluoromethyl)benzene]sulfonyl}phenyl)methyl]imidazo[1,2-a]pyridine-6-carboxamide] |  | 9.84 | 26.4 | 
COc1ccc(S(=O)(=O)c2ccc(CNC(=O)c3ccc4nccn4c3)cc2)cc1F [N-({4-[(3-fluoro-4-methoxybenzene)sulfonyl]phenyl}methyl)imidazo[1,2-a]pyridine-6-carboxamide] | 5.95 | 2.89 |  | 
CC(C)Oc1cccc(S(=O)(=O)c2ccc(CNC(=O)c3ccc4nccn4c3)cc2)c1F |  | 4 | 7.8 | 
COc1cc(F)cc(S(=O)(=O)c2ccc(CNC(=O)c3cnc4[nH]ncc4c3)cc2)c1 | 4.4 | 6.3 |  | 
O=C(NCc1ccc(S(=O)(=O)c2cc(Cl)cc(CO)c2)cc1)c1cc2ccncc2s1 |  |  |  | IC50 (A2780 cells; SRB): 0.8 nM; IC50 (NAMPT): 3.3 nM
COc1ccc(Cl)c(S(=O)(=O)c2ccc(CNC(=O)c3cnc4[nH]ncc4c3)cc2)c1 [N-({4-[(2-chloro-5-methoxybenzene)sulfonyl]phenyl}methyl)-1H-pyrazolo[3,4-b]pyridine-5-carboxamide] | 24.7 | 66.8 |  | 
Cc1cncc(S(=O)(=O)c2ccc(CNC(=O)c3cnc4[nH]ncc4c3)cc2)n1 [N-{[4-(6-methylpyrazine-2-sulfonyl)phenyl]methyl}-1H-pyrazolo[3,4-b]pyridine-5-carboxamide] |  | 31.2 | 34.9 | 
CCCCc1ccc(S(=O)(=O)c2ccc(CNC(=O)c3cc4cnccc4[nH]3)cc2)cc1 | 14.6 | 35.8 |  | 
O=C(NCc1ccc(S(=O)(=O)c2cccc(C(F)(F)F)c2Cl)cc1)c1cc2cnccc2[nH]1 |  | 8.8 | 36.4 | 
CS(=O)(=O)c1ccccc1S(=O)(=O)c1ccc(CNC(=O)c2cnc3[nH]ncc3c2)cc1 | 202 | 100 to 1000 |  | 
O=C(NCc1ccc(S(=O)(=O)c2ccc(N3CCCC3)cc2)cc1)c1ccc2nccn2c1 |  | 1.4 | 3 | 
CCCCOc1ccc(Cl)cc1S(=O)(=O)c1ccc(CNC(=O)c2cnc3[nH]ncc3c2)cc1 [N-({4-[(2-butoxy-5-chlorobenzene)sulfonyl]phenyl}methyl)-1H-pyrazolo[3,4-b]pyridine-5-carboxamide] | 117 | 73.7 |  | 
O=C(NCc1ccc(S(=O)(=O)N2CC3CCC(C2)O3)cc1)c1cc2cnccc2[nH]1 [N-[(4-{8-oxa-3-azabicyclo[3.2.1]octane-3-sulfonyl}phenyl)methyl]-1H-pyrrolo[3,2-c]pyridine-2-carboxamide] | 8 |  |  | IC50 (A2780 cells; [1]): 3 nM
O=C(NCc1ccc(S(=O)(=O)c2cncc(F)c2)cc1)c1ccc2nccn2c1 [N-{[4-(5-fluoropyridine-3-sulfonyl)phenyl]methyl}imidazo[1,2-a]pyridine-6-carboxamide] |  | 13.7 | 27.8 | 

SMILES | IC50 (NAMPT; NAMPT enzymatic reaction) [nM] | IC50 (A2780 cells; Homo sapiens, A2780, 72 h, SRB) [nM] | IC50 (NAMPT; NAMPT enzymatic assay) [nM] | also measured
COc1cccc(Cl)c1S(=O)(=O)c1ccc(CNC(=O)c2cc3cnccc3[nH]2)cc1 [N-({4-[(2-chloro-6-methoxybenzene)sulfonyl]phenyl}methyl)-1H-pyrrolo[3,2-c]pyridine-2-carboxamide] | 13 |  |  | IC50 (A2780 cells; [1]): 3 nM
O=C(NCc1ccc(S(=O)(=O)c2cc(F)cc(OCC(F)(F)F)c2)cc1)c1cc2cnccc2[nH]1 |  | 1.9 | 5.6 | 
Cc1cc(S(=O)(=O)c2ccc(CNC(=O)c3ccc4nccn4c3)cc2)ccc1F [N-({4-[(4-fluoro-3-methylbenzene)sulfonyl]phenyl}methyl)imidazo[1,2-a]pyridine-6-carboxamide] | 23.5 | 7.14 |  | 
O=C(NCc1ccc(S(=O)(=O)c2cccnc2N2CCOCC2)cc1)c1cc2ccncc2o1 [N-({4-[2-(morpholin-4-yl)pyridine-3-sulfonyl]phenyl}methyl)furo[2,3-c]pyridine-2-carboxamide] |  | 60.5 | 32.5 | 
CC(C)n1cc(S(=O)(=O)c2ccc(CNC(=O)c3ccc4nccn4c3)cc2)cn1 [N-({4-[1-(propan-2-yl)-1H-pyrazole-4-sulfonyl]phenyl}methyl)imidazo[1,2-a]pyridine-6-carboxamide] |  | 2.7 | 8 | 
CN(C)CCOc1cccc(S(=O)(=O)c2ccc(CNC(=O)c3cc4ccncc4o3)cc2)c1 |  | 5.8 | 11.8 | 
O=C(NCc1ccc(S(=O)(=O)c2ccc(C(F)(F)F)cc2OCC(F)(F)F)cc1)c1ccc2nccn2c1 [N-[(4-{[2-(2,2,2-trifluoroethoxy)-4-(trifluoromethyl)benzene]sulfonyl}phenyl)methyl]imidazo[1,2-a]pyridine-6-carboxamide] |  | 1.2 | 7 | 
O=C(NCc1ccc(S(=O)(=O)c2ccc(C(F)(F)F)cn2)cc1)c1cnc2nccn2c1 [N-({4-[5-(trifluoromethyl)pyridine-2-sulfonyl]phenyl}methyl)imidazo[1,2-a]pyrimidine-6-carboxamide] |  | 70.8 | 5.9 | 
CCOc1ccc(S(=O)(=O)c2ccc(CNC(=O)c3cnc4[nH]ncc4c3)cc2)cc1F | 9.5 | 5.2 |  | 
CCCOc1ccc(S(=O)(=O)c2ccc(CNC(=O)c3cnc4nccn4c3)cc2)cc1 | 2.2 | 6.1 |  | 
O=C(NCc1ccc(S(=O)(=O)c2ccc(N3CCOCC3)cc2)cc1)c1cc2ccncc2s1 |  | 1.5 | 1.6 | 
Cc1cc(C)c(S(=O)(=O)c2ccc(CNC(=O)c3cnc4nccn4c3)cc2)c(C)c1 | 28.8 | 100 to 1000 |  | 
Cn1cc(S(=O)(=O)c2ccc(CNC(=O)c3cc4ccncc4o3)cc2)cn1 [N-{[4-(1-methyl-1H-pyrazole-4-sulfonyl)phenyl]methyl}furo[2,3-c]pyridine-2-carboxamide] |  | 65.4 | 16.8 | 
CC(=O)c1ccc(S(=O)(=O)c2ccc(CNC(=O)c3cc4ccncc4s3)cc2)cc1 [N-({4-[(4-acetylbenzene)sulfonyl]phenyl}methyl)thieno[2,3-c]pyridine-2-carboxamide] | 4 |  |  | IC50 (A2780 cells; [1]): 2.5 nM
O=C(NCc1ccc(S(=O)(=O)c2cccc(C(=O)NC3CCCC3)c2)cc1)c1ccc2nccn2c1 |  | 16.2 | 10.3 | 
COc1ccc(F)cc1S(=O)(=O)c1ccc(CNC(=O)c2ccc3nccn3c2)cc1 [N-({4-[(5-fluoro-2-methoxybenzene)sulfonyl]phenyl}methyl)imidazo[1,2-a]pyridine-6-carboxamide] | 22 | 6.65 |  | 
O=C(NCc1ccc(S(=O)(=O)c2cccc(F)c2)cc1)c1ccc2nccn2c1 [N-({4-[(3-fluorobenzene)sulfonyl]phenyl}methyl)imidazo[1,2-a]pyridine-6-carboxamide] | 22.1 | 12.2 |  | 
CCOc1ccccc1S(=O)(=O)c1ccc(CNC(=O)c2cnc3nccn3c2)cc1 | 1 | 7.1 |  | 
COc1ccc(F)c(F)c1S(=O)(=O)c1ccc(CNC(=O)c2cc3cnccc3[nH]2)cc1 [N-({4-[(2,3-difluoro-6-methoxybenzene)sulfonyl]phenyl}methyl)-1H-pyrrolo[3,2-c]pyridine-2-carboxamide] | 204 | 84.9 |  | 
O=C(NCc1ccc(S(=O)(=O)c2cccc(N3CCOCC3)c2)cc1)c1cc2ccncc2o1 |  | 5.6 | 5 | 
O=C(NCc1ccc(S(=O)(=O)Nc2ccccc2Oc2ccccc2)cc1)c1cc2cnccc2[nH]1 [N-({4-[(2-phenoxyphenyl)sulfamoyl]phenyl}methyl)-1H-pyrrolo[3,2-c]pyridine-2-carboxamide] | 4020 |  |  | IC50 (A2780 cells; [1]): 12000 nM
COc1cncc(S(=O)(=O)c2ccc(CNC(=O)c3cc4ccncc4s3)cc2)c1 [N-{[4-(5-methoxypyridine-3-sulfonyl)phenyl]methyl}thieno[2,3-c]pyridine-2-carboxamide] |  | 1.6 | 9 | 
